Experimental data as given in US7338932B2, “Methods of modulating functions of polypeptide GalNAc-transferases and of screening test substances to find agents herefor, pharmaceutical compositions comprising such agents and the use of such agents for preparing medicaments” (Glycozym APS, priority 2000, dated 2008).
pIC50: −log10 of the molar value. Like-named read-outs stand apart in the source and are kept apart here. Ends that are not written are not given here.

How the values were obtained:
[1] = target: T1, GalNAc-T4 lectin domain (T4ld) (Homo sapiens, UniProt Q8N4A0); test: Direct binding ELISA to GalNAc-MUC1 glycopeptide, competitive inhibition, T4ld
T1 construct: made in house; host or cells: High Five insect cells (baculovirus, pAcGP67-A)
Protocol: (§1) Protein biotinylation was made as previously reported^62. The pH of 1 ml purified protein (0.3 mg/ml) in PBS was adjusted to pH 9 with 1 M NaOH and 40 μl N-hydroxy-succinimidobiotin (Sigma) dissolved in DMF (10 mg/ml) was added. The solution was mixed end-over-end for 2 hours at room temperature, and dialyzed three times against PBS and an equal volume of glycerol was added. The biotinylated proteins were stored at −20° C. in 50% glycerol until use.
(§2) Direct binding ELISA assay was developed as follows: Polystyrene microtiter plates (Maxisorb, Nunc, Denmark) were coated with peptides or enzymatically glycosylated glycopeptides in PBS overnight at 4° C. Plates were washed and blocked with 0.1% Tween20 and 0.2% BSA in PBS for 1 h at room temperature, followed by incubation with biotinylated proteins in PBS with 0.05% Tween20 for 2 h at room temperature. After four washes with PBS, plates were incubated with 1:2,000 dilution streptavidin-HRP (Sigma) in PBS for 30 min at room temperature and washed four times with PBS. Development was performed with 0.5 mg/ml o-phenylenediamine and 0.02% H2O2 at room temperature for 15 min, and reaction stopped by adding 100 μl/well of 0.5 N H2SO4. Competitive inhibition assays were done at end-point titers of GalNAc-transferase proteins with one hour preincubations with inhibitor.
(§3) In binding studies using lectins without biotinylation antibodies to the HIS-tag and the T7-tag, or in some experiments antibodies raised to GalNAc-T2 and -T4 enzymes were used to detect binding.

[2] = target: T2, GalNAc-T2 lectin domain (T2ld) (Homo sapiens, UniProt Q10471); test: Direct binding ELISA to GalNAc-MUC1 glycopeptide, competitive inhibition, T2ld
T2 construct: made in house; host or cells: High Five insect cells (baculovirus, pAcGP67-A)
T2 sequence (Q10471 408-571): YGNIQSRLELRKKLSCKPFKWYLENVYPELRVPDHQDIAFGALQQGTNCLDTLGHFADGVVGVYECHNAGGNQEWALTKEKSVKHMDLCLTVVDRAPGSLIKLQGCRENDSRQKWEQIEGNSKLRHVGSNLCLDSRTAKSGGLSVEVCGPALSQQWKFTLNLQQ
Protocol: as §1, §2, §3

[3] = target: T3, secreted soluble GalNAc-T2 (sT2) (Homo sapiens, UniProt Q10471); test: Direct binding ELISA to GalNAc-MUC1 glycopeptide, competitive inhibition, sT2; details: read-out: Concentration required for 50% inhibition (IC50), sT2
T3 construct: HIS-tagged secreted human GalNAc-T2 and -T4 were prepared from pAC-GP67-T2-sol and pAC-GP67-T4-sol cDNA; 6xHis (N); thrombin cleavage site (N); T7 tag (N); made in house; host or cells: High Five insect cells (baculovirus)
Protocol: as §1, §2, §3

[4] = target: Helix Pomatia lectin (HPA) (Helix pomatia, UniProt Q2F1K8); test: Direct binding ELISA, competitive inhibition, Helix Pomatia lectin control; details: read-out: Concentration required for 50% inhibition (IC50), HPA; control plant lectin
Source text: Glycopeptides were purified by C-18 reverse phase HPLC. Peptides were custom synthesized by Neosystems (Strasbourg). Biotinylated Helix Pomatia lectin (HPA) was from KemEnTec (Denmark). Anti-MUC1 HMFG2 monoclonal antibody was a generous gift from Joyce Taylor-Papadimitriou. Anti-MUC1 SE5 monoclonal antibody was developed by immunizing Balb/c mice with 60-mer MUC1 tandem repeat peptide glycosylated with 5 moles GalNAc per repeat. Monoclonal antibodies to the lectin domains of human GalNAc-T2 and -T4 were developed as previously described^8, 63.
as §2
Inhibition experiments were used to further define the binding specificity of GalNAc-T2 and -T4 secreted soluble enzymes as well as lectin domains compared to Helix Pomatia lectin (Table VII).

[5] = target: T4, secreted soluble GalNAc-T4 (sT4) (Homo sapiens, UniProt Q8N4A0); test: Direct binding ELISA to GalNAc-MUC1 glycopeptide, competitive inhibition, sT4; details: binding to GalNAc-MUC1 glycopeptide
T4 construct: using the GalNAc-T4-sol construct that encodes residues 32-578 inserted into pT7T3U19; 6xHis (N); thrombin cleavage site (N); T7 tag (N); made in house; host or cells: High Five insect cells (baculovirus)
Protocol: as §1, §2, §3

[6] = target: T5, GalNAc-T3 (Homo sapiens, UniProt Q14435); test: GalNAc-T3 transferase activities with UDP-GalNAc or UDP-Gal donor (EA2 acceptor, peptide panel); assay type: biochemical; details: peptide as acceptor substrate
T5 construct: Soluble, secreted expression constructs of human GalNAc-transferases GalNAc-T1, -T2, -T3, -T4, -T6, -T7, and -T11; made in house; host or cells: insect cells (baculovirus)
T5 sequence (Q14435 38-633 limits assumed): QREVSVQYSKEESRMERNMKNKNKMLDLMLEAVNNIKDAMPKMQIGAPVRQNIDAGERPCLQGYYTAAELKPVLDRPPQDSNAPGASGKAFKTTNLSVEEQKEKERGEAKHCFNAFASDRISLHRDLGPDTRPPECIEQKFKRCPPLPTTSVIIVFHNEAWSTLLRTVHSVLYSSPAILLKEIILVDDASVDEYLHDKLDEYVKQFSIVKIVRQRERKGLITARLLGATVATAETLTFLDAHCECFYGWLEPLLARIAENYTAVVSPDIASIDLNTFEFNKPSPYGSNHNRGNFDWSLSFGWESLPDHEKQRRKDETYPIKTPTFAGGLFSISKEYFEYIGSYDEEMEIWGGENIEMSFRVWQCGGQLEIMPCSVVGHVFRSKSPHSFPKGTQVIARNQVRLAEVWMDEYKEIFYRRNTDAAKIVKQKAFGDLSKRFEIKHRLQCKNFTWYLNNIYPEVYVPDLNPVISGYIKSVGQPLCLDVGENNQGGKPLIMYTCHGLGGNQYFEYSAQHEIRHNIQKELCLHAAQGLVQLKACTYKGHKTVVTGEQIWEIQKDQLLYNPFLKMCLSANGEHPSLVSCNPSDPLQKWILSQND
Protocol: (§4) Standard reaction mixtures (50 μl final volume) contained 25 mM cocadylate (pH 7.4), 10 mM MnCl2, 0.25% Triton X-100, 200 μM UDP-[^14C]-GalNAc (2,000 cpm/nmol) (Amersham), 200-500 μM acceptor peptides. Products were quantified by scintillation counting after chromatography on Dowex-1, octadecyl silica cartridges (Bakerbond), or HPLC (PC3.2/3 or mRPC C2/C18 SC2.1/10 Pharmacia, Smart System). […] Glycopeptides were purified on Supelclean LC-18 columns (1 ml, Supelco), and the number of GalNAc residues incorporated evaluated by MALDI-TOF mass spectrometry. The enzyme sources used were semipurified as previously described by successive sequential ion-exchange chromatographies on Amberlite (IRA95, Sigma) or DEAE Sephacel (Pharmacia), S-Sepharose Fast Flow (Pharmacia), and Mini-S™ (PC 3.2/3, Pharmacia) using the Smart System (Pharmacia) (28). Secreted GalNAc-T4 was obtained from a stably transfected CHO line (CHO/GalNA-T4/21A) (8) grown in roller bottles in HAMS F12 supplemented with 10% Fetal Bovine Serum. The experiments illustrated in FIG. 1 was performed with recombinant secreted GalNAc-T4 obtained from a stably transfected CHO line (8). Experiments illustrated in FIGS. 2 and 3 were performed with secreted GalNAc-T4 expressed in High Five cells grown in serum-free medium (8). Structural analysis of glycopeptides were performed by a combination of PFPA (pentafluoropropionic acid) hydrolysis and MALDI-TOF mass spectrometry as previously described (40). Secreted GalNAc-T7 was obtained from infected High Five™ cells grown in serum-free medium (Invitrogen) in upright roller bottles shaken 140 rpm in waterbaths at 27° C. GalNAc-T7 was not purified by Mini-S as the yields from cationic chromatography were low due to its low pI (6.4).
(§5) Galactosyl transferring activities of GalNAc-T1, -T2, and -T3, were assayed with a panel of acceptor peptides in standard reaction mixtures containing 100 μM UDP-Gal instead of UDP-GalNAc. […] Further, analysis was performed with 10 mM α-D-GalNAc-1-benzyl, αGlcNAc-benzyl, and fully occupied GalNAc-glycopeptide, GalNAC6TAP25, at 5 mM.

[7] = target: T6, GalNAc-T2 (Homo sapiens, UniProt Q10471); test: GalNAc-T2 transferase activities with UDP-GalNAc or UDP-Gal donor (Muc2 acceptor, peptide panel); assay type: biochemical; details: peptide as acceptor substrate
T6 construct: Soluble, secreted expression constructs of human GalNAc-transferases GalNAc-T1, -T2, -T3, -T4, -T6, -T7, and -T11; made in house; host or cells: insect cells (baculovirus)
Protocol: as §4, §5

[8] = read-out: Concentration required for 50% inhibition (IC50), T2ld
[9] = read-out: Concentration required for 50% inhibition (IC50), sT4

| pIC50 [4] | pIC50 [5, 9] | GalNAc-T3 activity with UDP-Gal by acceptor peptide [6] [nmol/min/mL] | GalNAc-T2 activity with UDP-Gal by acceptor peptide [7] [nmol/min/mL] | Molecule | further results |
| --- | --- | --- | --- | --- | --- |
| < 1.00 | < 1.00 | – | – | O=c1ccn([C@@H]2O[C@H](COP(=O)(O)OP(=O)(O)O)[C@@H](O)[C@H]2O)c(=O)[nH]1 [UDP] | pIC50 ([1]; read-out: Concentration required for 50% inhibition (IC50), T4ld): < 1.00; pIC50 [2, 8]: < 1.00; pIC50 [3]: < 1.00 |
| < 1.70 | 3.10 | – | – | CC(=O)N[C@H]1[C@H](Oc2ccc([N+](=O)[O-])cc2)O[C@H](CO)[C@H](O)[C@@H]1O [pNPβGalNAc] | – |
| – | – | 6.8 | 1.5 | EA2: acceptor peptide PTTDSTTPAPTTK derived from rat submandibular gland mucin | – |
| – | – | 0 | 90 | Muc2: acceptor peptide PTTTPISTTTMVTPTPTPTC derived from human intestinal mucin MUC2 | – |
| – | – | 0.1 | 13 | Muc7: acceptor peptide Ac-CPPTPSATTPAPPSSSAPPETTAA derived from human salivary gland mucin MUC7 | – |

| Molecule | pIC50 [4] | pIC50 [5, 9] | GalNAc-T3 activity with UDP-Gal by acceptor peptide [6] [nmol/min/mL] | GalNAc-T2 activity with UDP-Gal by acceptor peptide [7] [nmol/min/mL] | further results |
| --- | --- | --- | --- | --- | --- |
| CC(=O)N[C@H]1[C@H](Oc2ccccc2[N+](=O)[O-])O[C@H](CO)[C@H](O)[C@@H]1O [oNPβGalNAc] | < 1.70 | – | – | – | pIC50 [1]: 2.10; pIC50 [2]: < 1.92; pIC50 [5]: 3.00 |
| uridine diphospho-N-acetylgalactosamine [UDPαGalNAc] | – | 1.52 | – | – | pIC50 [2, 8]: < 1.00; pIC50 [3]: 1.19 |
